{"source": "patent US7585667B2", "about": "“Negative strand RNA virus replicon” (The United States of America as represented by The …, priority 2003, dated 2009)", "test_system": "BHK-SR19-T7 cells", "assay": "Blasticidin concentration that kills BHK-SR19-T7 cells", "assay_type": "cell-based, hamster", "settings": "in medium", "experimental": "To launch the replicon, MP295 and the four RSV support plasmids necessary for virus replication and gene expression, N, P, L, and M2-1 were transfected into two 35 mm wells of BHK-SR19-T7 cells (FIG. 4). On day 2, green cells were noted and all of the cells from each 35 mm dish were passaged to 100 mm dishes. On the following day (day 3) the medium was replaced with fresh medium containing 1 ug/ml blasticidin, a concentration that we had determined would kill most BHK-SR19-T7 cells. On day 4, approximately 200 single green cells and 15 pairs of the green cells were noted. On day 6, 20 pairs of green cells were noted. Many of the cells lacking the replicon had died by that time, but a few resistant colonies were growing. The cells were passaged into 150 mm tissue culture plates, in the presence of 4 or 8 ug/ml blasticidin in an attempt to eliminate resistant BHK cell clones. The following day, day 9, 40% of the 175 cell groups counted were pairs, the remainder being singles. By day 14, 3 colonies of >20 cells had developed, while many of the individual green cells had remained single or died. By day 19, many “mixed” colonies containing both replicon-containing and parental cells were noted, as well as more colonies with only green cells.", "data": [{"molecule": "CN(CC[C@H](N)CC(=O)N[C@H]1C=C[C@H](n2ccc(N)nc2=O)O[C@@H]1C(=O)O)C(=N)N", "note": "[blasticidin]", "values": [{"measurement": "concentration that would kill most BHK-SR19-T7 cells", "value": 1000, "unit": "ng/mL"}]}]}
